Laboratory results reported in ChEMBL document CHEMBL1201862, “PubChem BioAssay data set” (2004).
Values belong to the compound of their own block, whether it stands above or below them. Active and inactive are the calls of the source.

What was measured:
[1] = inhibitors of SNCA 5'UTR-driven reporter translation, confirmation, H4 neuroglioma cells, luminescence (AID 1988); assay type: functional, cell-based
HEK293 = experiment: cells; assay type: functional, cell-based; details: Homo sapiens;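 also: HEK-293-T cells carrying an NF-kB luciferase reporter; cells exposed to compound overnight before the viability read; potency for loss of cell viability meaning cytotoxicity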
[2] = target: Tyrosyl-DNA phosphodiesterase 2 (Homo sapiens, UniProt O95551); experiment: human TDP2 enzyme inhibitors, dose response, biochemical, epi absorbance, IC50 (AID 743297)
[3] = target: Phosphorylase b kinase gamma catalytic chain, liver/testis isoform (Homo sapiens, UniProt P15735); assay type: functional;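 also: PHKG2 measured as one member of a kinome-wide kinase panel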
[4] = target: Serine/threonine-protein kinase TBK1 (Homo sapiens, UniProt Q9UHD2); experiment: Navigating the Kinome. Panel member name: TBK1; assay type: functional
[5] = target: 5'-AMP-activated protein kinase catalytic subunit alpha-1 (Homo sapiens, UniProt Q13131); assay type: functional
[6] = target: Protein kinase C delta type (Homo sapiens, UniProt Q05655); assay type: functional
[7] = target: Serine/threonine-protein kinase D2 (Homo sapiens, UniProt Q9BZL6); assay type: functional;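 also: measured against PRKD2 as one member of a kinome-wide kinase profiling panel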
[8] = target: Mitogen-activated protein kinase 8 (Homo sapiens, UniProt P45983); assay type: functional;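 also: value comes from one member of a kinome-wide kinase profiling panel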
[9] = target: Cell division cycle 7-related protein kinase (Homo sapiens, UniProt O00311); assay type: functional;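 also: value obtained from a kinome-wide kinase panel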
[10] = target: Tyrosine-protein kinase Lyn (Homo sapiens, UniProt P07948); assay type: functional;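 also: lyn as one member of a kinase panel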
[11] = target: Tyrosine-protein kinase ITK/TSK (Homo sapiens, UniProt Q08881); assay type: functional;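 also: affinity for ITK measured as one member of a broad kinase panel profiling binding across the kinome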
[12] = target: Serine/threonine-protein kinase TAO1 (Homo sapiens, UniProt Q7L7X3); assay type: functional
[13] = target: Proto-oncogene tyrosine-protein kinase ROS (Homo sapiens, UniProt P08922); assay type: functional;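 also: ROS1 tested as one member of a kinome-wide kinase panel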
[14] = target: Protein kinase C gamma type (Homo sapiens, UniProt P05129); assay type: functional
[15] = target: Mitogen-activated protein kinase kinase kinase kinase 2 (Homo sapiens, UniProt Q12851); assay type: functional;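 also: measured as one member of a kinome-wide kinase panel, with MAP4K2 as the panel entry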
[16] = target: Mitogen-activated protein kinase 1 (Homo sapiens, UniProt P28482); assay type: functional
[17] = target: Interleukin-1 receptor-associated kinase 1 (Homo sapiens, UniProt P51617); assay type: functional;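 also: IRAK1 tested as one member of a kinome panel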
[18] = target: Calcium/calmodulin-dependent protein kinase type 1 (Homo sapiens, UniProt Q14012); assay type: functional
[19] = target: Tyrosine-protein kinase Fyn (Homo sapiens, UniProt P06241); assay type: functional
[20] = target: Homeodomain-interacting protein kinase 4 (Homo sapiens, UniProt Q8NE63); assay type: functional
[21] = target: Serine/threonine-protein kinase DCLK1 (Homo sapiens, UniProt O15075); assay type: functional;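 also: affinity for DCLK1 (listed as DCAMKL1) measured as one member of a kinome-wide kinase profiling panel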
[22] = target: STE20-like serine/threonine-protein kinase (Homo sapiens, UniProt Q9H2G2); assay type: functional
[23] = target: Cyclin-dependent kinase 9 (Homo sapiens, UniProt P50750); assay type: functional;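 also: value from the CDK9 entry of a kinome-spanning kinase panel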
[24] = target: Dual specificity tyrosine-phosphorylation-regulated kinase 1A (Homo sapiens, UniProt Q13627); assay type: functional;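 also: measured against DYRK1A as one member of a broad kinome profiling panel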
[25] = target: Inhibitor of nuclear factor kappa-B kinase subunit epsilon (Homo sapiens, UniProt Q14164); experiment: Navigating the Kinome. Panel member name: IKBKE; assay type: functional
Aminopeptidase N = target: T1, Aminopeptidase N (Plasmodium falciparum FcB1/Columbia, UniProt O96935); experiment: P. falciparum M1AAP inhibitors, biochemical, fluorogenic H-Leu-NHMec substrate, 1536-well (AID 1445); set-up: species or system Plasmodium falciparum 3D7, 3D7
T1 sequence (O96935 whole entry): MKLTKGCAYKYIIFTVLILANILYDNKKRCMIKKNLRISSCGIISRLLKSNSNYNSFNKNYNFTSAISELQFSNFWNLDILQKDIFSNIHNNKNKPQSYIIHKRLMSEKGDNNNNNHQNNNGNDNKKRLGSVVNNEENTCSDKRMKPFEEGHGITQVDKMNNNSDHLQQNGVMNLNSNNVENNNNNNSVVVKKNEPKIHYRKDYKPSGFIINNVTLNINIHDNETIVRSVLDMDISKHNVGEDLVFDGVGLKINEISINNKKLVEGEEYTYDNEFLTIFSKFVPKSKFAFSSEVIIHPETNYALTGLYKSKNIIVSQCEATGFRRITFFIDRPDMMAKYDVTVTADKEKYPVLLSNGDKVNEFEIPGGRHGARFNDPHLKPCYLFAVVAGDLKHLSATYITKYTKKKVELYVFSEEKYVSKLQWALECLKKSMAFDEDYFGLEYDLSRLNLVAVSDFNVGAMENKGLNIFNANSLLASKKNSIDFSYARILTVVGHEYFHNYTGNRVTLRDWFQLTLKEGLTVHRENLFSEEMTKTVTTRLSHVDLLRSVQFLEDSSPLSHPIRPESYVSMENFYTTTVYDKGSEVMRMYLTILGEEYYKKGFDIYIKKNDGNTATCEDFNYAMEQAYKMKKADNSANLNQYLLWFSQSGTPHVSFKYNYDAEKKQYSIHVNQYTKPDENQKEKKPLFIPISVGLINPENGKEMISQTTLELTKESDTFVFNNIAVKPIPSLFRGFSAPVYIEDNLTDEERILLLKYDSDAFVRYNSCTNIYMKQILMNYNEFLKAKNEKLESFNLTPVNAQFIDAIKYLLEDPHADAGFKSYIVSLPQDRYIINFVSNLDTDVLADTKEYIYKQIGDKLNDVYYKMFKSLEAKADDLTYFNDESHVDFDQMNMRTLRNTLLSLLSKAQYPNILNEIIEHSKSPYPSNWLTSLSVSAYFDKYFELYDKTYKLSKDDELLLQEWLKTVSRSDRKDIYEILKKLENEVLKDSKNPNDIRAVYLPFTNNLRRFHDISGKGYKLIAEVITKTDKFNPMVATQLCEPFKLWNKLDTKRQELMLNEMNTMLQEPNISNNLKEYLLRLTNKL

[26] = test system: Streptococcus sp. 'group A'; experiment: growth inhibition of control SK(-) GAS strain, dose response, counter-screen for streptokinase expression inhibitor project, luminescence, kanamycin, BacTiterGlo, confirmation (AID 1900); assay type: functional, organism-based
[27] = cytotoxicity in HPDE-C7 cells, cell-based, fluorescence, HTS (AID 430); assay type: functional; details: Homo sapiens
[28] = half-maximal inhibitory concentration for glucagon-like peptide-1 release, STC-1 cell line, dose-response (AID 1117345); assay type: functional, cell-based
[29] = CellTiter-Glo luminescent dose response of DLD-1 viability loss (AID 1117352); assay type: functional
[30] = Glucagon-like peptide 1 release potency, NCI-H716 cell line, dose-response, half-maximal inhibitory concentration (AID 1117344); assay type: functional, cell-based

Chain of Cell division cycle 7-related protein kinase (O00311 whole entry): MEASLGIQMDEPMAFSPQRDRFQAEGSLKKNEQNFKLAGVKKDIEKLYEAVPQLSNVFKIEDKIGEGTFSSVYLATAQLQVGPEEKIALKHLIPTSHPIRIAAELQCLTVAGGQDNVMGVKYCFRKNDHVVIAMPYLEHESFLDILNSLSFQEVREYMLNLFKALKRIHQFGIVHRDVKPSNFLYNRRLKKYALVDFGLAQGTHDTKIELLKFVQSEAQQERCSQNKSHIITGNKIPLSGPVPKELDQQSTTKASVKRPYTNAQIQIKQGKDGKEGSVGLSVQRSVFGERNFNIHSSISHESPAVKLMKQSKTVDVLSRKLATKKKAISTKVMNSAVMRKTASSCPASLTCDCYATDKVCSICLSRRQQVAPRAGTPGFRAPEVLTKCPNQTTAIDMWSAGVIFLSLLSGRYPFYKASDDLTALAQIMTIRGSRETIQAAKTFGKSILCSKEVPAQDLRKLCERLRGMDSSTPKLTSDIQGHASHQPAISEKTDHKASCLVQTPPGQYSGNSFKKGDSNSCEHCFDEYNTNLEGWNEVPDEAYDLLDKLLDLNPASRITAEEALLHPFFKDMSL
Chain of Mitogen-activated protein kinase 8 (P45983 whole entry): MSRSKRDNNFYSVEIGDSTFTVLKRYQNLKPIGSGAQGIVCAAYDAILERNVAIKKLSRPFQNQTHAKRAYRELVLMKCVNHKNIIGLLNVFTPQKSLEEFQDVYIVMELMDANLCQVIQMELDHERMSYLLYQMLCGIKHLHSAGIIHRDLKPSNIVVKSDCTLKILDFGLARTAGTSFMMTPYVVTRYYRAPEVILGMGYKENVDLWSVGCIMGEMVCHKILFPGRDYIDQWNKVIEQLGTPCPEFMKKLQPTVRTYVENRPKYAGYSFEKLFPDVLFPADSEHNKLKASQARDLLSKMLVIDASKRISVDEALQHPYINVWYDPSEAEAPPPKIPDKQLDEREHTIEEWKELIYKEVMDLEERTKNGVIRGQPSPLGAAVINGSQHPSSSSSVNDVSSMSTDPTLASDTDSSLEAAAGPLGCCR
Chain of 5'-AMP-activated protein kinase catalytic subunit alpha-1 (Q13131 whole entry): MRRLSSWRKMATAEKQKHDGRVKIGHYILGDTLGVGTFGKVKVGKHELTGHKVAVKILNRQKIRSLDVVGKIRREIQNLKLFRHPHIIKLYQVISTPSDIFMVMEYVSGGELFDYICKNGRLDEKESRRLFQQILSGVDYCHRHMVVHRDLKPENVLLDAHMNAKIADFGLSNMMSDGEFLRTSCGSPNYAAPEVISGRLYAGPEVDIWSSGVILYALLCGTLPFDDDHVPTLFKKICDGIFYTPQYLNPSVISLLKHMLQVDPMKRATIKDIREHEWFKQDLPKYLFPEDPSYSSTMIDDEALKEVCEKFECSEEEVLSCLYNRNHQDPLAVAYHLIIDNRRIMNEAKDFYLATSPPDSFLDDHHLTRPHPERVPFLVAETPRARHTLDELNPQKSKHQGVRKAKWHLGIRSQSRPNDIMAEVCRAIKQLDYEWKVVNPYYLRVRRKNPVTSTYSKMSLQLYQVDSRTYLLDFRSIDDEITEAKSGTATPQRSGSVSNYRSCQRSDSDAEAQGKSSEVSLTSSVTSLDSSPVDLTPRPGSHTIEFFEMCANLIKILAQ
Chain of Mitogen-activated protein kinase 1 (P28482 whole entry): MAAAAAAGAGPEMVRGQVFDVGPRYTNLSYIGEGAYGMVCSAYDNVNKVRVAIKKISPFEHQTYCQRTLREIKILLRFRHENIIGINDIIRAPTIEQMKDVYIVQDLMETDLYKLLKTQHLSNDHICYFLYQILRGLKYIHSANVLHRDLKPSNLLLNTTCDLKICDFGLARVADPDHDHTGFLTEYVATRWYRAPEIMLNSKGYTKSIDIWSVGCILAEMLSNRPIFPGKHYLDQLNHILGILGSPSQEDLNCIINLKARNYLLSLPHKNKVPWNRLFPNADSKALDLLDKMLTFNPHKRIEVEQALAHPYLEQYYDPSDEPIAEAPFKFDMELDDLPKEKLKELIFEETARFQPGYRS
Chain of Serine/threonine-protein kinase TBK1 (Q9UHD2 whole entry): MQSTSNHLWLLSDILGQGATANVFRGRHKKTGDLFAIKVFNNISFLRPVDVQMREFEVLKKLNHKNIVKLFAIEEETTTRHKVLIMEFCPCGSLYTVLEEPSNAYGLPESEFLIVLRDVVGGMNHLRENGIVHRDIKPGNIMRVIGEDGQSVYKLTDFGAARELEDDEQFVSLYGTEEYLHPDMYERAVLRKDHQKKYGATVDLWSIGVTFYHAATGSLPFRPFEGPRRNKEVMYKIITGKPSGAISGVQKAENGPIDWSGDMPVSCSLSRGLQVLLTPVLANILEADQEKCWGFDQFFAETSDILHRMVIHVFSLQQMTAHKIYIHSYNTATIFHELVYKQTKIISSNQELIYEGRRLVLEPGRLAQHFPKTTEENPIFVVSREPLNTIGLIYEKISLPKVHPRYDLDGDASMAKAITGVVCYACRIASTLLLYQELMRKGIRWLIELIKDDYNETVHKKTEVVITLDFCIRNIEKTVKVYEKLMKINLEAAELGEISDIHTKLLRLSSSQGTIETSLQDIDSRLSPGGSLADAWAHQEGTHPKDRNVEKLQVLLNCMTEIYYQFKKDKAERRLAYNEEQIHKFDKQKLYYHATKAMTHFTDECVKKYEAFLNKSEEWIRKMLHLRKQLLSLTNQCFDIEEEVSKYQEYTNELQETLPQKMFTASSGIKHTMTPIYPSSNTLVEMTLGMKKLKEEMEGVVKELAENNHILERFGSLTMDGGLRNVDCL
Chain of Tyrosine-protein kinase Lyn (P07948 whole entry): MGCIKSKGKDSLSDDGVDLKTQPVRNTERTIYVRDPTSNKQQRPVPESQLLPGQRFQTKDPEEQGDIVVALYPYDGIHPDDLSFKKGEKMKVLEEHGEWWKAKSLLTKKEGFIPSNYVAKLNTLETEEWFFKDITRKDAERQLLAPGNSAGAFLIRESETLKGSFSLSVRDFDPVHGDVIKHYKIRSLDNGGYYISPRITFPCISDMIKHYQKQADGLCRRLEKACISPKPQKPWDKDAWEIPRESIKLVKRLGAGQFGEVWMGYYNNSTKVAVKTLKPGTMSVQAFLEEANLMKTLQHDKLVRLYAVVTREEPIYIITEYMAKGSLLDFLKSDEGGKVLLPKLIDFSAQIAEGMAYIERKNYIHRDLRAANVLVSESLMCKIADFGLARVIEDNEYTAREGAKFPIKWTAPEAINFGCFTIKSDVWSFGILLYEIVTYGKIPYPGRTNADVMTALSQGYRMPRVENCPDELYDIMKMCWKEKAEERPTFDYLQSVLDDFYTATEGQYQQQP
Chain of Serine/threonine-protein kinase D2 (Q9BZL6 whole entry): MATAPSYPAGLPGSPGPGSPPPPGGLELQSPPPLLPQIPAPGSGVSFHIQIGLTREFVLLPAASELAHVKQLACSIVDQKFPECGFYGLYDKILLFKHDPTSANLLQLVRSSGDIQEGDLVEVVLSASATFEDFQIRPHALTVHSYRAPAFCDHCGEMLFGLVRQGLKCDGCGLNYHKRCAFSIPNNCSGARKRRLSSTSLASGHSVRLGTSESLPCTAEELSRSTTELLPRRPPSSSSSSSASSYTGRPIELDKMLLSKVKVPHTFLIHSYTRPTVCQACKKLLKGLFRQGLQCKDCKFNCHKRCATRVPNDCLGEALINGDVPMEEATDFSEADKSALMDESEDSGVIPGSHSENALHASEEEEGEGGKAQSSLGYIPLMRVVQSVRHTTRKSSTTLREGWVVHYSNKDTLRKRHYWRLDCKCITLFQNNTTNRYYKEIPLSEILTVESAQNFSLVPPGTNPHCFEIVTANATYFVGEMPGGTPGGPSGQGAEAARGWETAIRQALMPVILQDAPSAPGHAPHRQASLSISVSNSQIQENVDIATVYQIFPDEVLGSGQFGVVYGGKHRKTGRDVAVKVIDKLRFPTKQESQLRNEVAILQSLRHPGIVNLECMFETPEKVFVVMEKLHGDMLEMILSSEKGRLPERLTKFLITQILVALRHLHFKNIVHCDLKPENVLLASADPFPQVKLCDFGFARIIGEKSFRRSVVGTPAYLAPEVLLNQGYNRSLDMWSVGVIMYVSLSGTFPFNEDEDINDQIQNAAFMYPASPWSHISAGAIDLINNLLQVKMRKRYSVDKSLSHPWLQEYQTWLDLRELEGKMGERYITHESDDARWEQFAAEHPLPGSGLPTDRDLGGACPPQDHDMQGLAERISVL
Chain of Tyrosyl-DNA phosphodiesterase 2 (O95551 whole entry, canonical isoform): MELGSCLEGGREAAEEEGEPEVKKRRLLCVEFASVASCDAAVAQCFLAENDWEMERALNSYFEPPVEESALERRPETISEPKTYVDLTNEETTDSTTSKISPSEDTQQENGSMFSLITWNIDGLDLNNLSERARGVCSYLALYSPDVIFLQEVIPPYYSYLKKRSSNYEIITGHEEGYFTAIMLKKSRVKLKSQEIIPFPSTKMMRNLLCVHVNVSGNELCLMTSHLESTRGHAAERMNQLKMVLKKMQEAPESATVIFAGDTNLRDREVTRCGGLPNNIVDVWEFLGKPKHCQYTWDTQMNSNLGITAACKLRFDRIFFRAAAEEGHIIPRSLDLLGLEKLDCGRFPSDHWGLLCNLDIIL
Chain of Calcium/calmodulin-dependent protein kinase type 1 (Q14012 whole entry): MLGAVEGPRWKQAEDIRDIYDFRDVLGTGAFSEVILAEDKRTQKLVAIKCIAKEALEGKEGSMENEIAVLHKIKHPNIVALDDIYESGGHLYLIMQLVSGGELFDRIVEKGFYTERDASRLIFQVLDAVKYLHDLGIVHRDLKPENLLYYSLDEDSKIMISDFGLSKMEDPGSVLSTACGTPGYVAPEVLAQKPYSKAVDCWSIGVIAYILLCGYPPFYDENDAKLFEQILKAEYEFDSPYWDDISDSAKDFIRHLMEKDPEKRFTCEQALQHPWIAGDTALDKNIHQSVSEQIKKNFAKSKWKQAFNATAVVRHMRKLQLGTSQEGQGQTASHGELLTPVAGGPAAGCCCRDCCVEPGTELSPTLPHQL

SMILES: O=C1C=C(N2CCOCC2)c2ccccc2C1=O
- EC50 [1]: 8.41 µM (active)
- IC50 (HEK293): 13.6 µM (active)
- IC50 [2]: 2.55 µM (active)

- Ki [3]: > 5.01 µM (inactive)
- Ki [4]: > 3.16 µM (inactive)
- Ki [5]: > 2.51 µM (inactive)
- Ki [6]: > 7.94 µM (inactive)
- Ki [7]: 7.94 µM (active)
- Ki [8]: > 5.01 µM (inactive)
- Ki [9]: > 1.26 µM (inactive)
- Ki [10]: > 1.58 µM (inactive)
- Ki [11]: > 1.58 µM (inactive)
- Ki [12]: > 7.94 µM (inactive)
- Ki [13]: > 2 µM (inactive)
- Ki [14]: > 7.94 µM (inactive)
- Ki [15]: > 3.98 µM (inactive)
- Ki [16]: > 7.94 µM (inactive)
- Ki [17]: > 7.94 µM (inactive)
- Ki [18]: > 6.31 µM (inactive)
- Ki [19]: > 3.98 µM (inactive)
- Ki [20]: > 7.94 µM (inactive)
- Ki [21]: > 10 µM (inactive)
- Ki [22]: > 10 µM (inactive)
- Ki [23]: > 1.58 µM (inactive)
- Ki [24]: > 3.16 µM (inactive)
- Ki [25]: > 3.16 µM (inactive)
SMILES: N#Cc1ccc2[nH]c(O)c(-c3ccc(CN4CCOCC4)cn3)c2c1 [AZD-1080]

SMILES: CCc1oc2ccccc2c1C(=O)c1cc(Br)c(O)c(Br)c1 [BENZBROMARONE]
- IC50 (Aminopeptidase N): 62.8 µM (active)
- EC50 [26]: 7.44 µM (active)
- EC50 [27]: 5.71 µM (active)
- IC50 [28]: > 40 µM (inactive)
- IC50 [29]: 0.268 µM (active)
- IC50 [30]: > 40 µM (inactive)
